Columns and labels:
[1] = tested on: rainbow trout (Oncorhynchus mykiss); test: Tissue concentrations in rainbow trout after 7 d exposure via water (two mixtures); type: in vivo
Experimental: The study was conducted with rainbow trout (Oncorhynchus mykiss) weighing between 98 and 165 g. The fish were purchased from Nordic trout Sweden AB and held in the aquaria facility prior to the experiment in February 2018. Ethical approval for the experiments was obtained from Stockholms djurförsöksetiska nämnd (decision 9967-2017). The experiments were conducted in 300 L fiberglass aquaria with a water renewal rate of 1.3 L min^–1 (MIX 1) and 1.45 L min^–1 (MIX 2). The water temperature was 10 °C and the pH 7.5. The water hardness was estimated to be 1.1 mM Ca^2+ based on information from the water supplier. The aquaria water was circulated through a filter of polyester wool at 800–1200 L h^–1 with an Eheim 2273 Pro 4+ pump. The outflow from the filter pump was placed above the water surface, providing for aeration. The lighting was dim and programmed on a 12 h light/12 h dark cycle. The fish were fed fish food pellets supplied by the fish farm at 1.0% of their body weight per day.
A solution of the test chemical mixture in methanol was infused continuously (3.5 and 3.8 μL min^–1 for MIX 1 and MIX 2, respectively) into the water inflow using a syringe pump. The intended concentrations of the chemicals in water ranged from 2.5 to 50 μg L^–1 (Table 1). They were selected with the help of modeled estimates of the BCF that were based on reported and extrapolated membrane water partition coefficients[7] and biotransformation rate constants predicted with quantitative structure activity relationships (QSARs)[24],[25] to parameterize the BIONIC model.[26] Based on these estimates, we selected an exposure concentration which would result in concentrations in fish that were clearly above the limit of quantification (LOQ) of the analytical method, while trying to keep the quantifiable exposure concentration as low as possible to minimize the risk of toxic effects and micelle formation (see comparison of intended concentrations with available toxicological data in Table S4).
The surface of the fish posterior of the gills was rinsed with 100% methanol to remove test chemical residues adsorbed to the outer surface of the skin and absorbed in the skin mucus. […] The fish were dissected and the liver, the kidney, the gills, and the remaining contents of the abdominal cavity were taken and weighed. Skin and muscle samples were prepared from the upper dorsal region on semi-frozen fish after the methanol rinse had removed the mucus. The main part of the subcutaneous fat tissue was included in the muscle samples rather than in the skin samples. All samples were stored frozen at −20 °C until further analysis.
For 6 fish from each aquarium and 3 control fish, samples of muscle, skin, liver, and gills were homogenized in a bullet blender (muscle and liver) (MiniG, SPEXsamplePrep) or in a cryo-mill (skin and gill) (Mixer mill cryomill, Retsch GmbH). A sub-sample of 0.5–1.2 g of the homogenate was extracted twice in methanol (4 mL, 50 °C, ultra-sound, 60 min), employing centrifugation at 4000 rpm for phase separation. Further information on the extraction efficiency of this method can be found in the Supporting Information (Table S5 and accompanying text). Isotope labeled standards of Q10 (D21), Q14 (D29), and P16 (D33) were added to a portion of the extract corresponding to 12–75 mg of the sample. The extract volume was adjusted to 3 mL with methanol and then cleaned up on a weak cationic exchange SPE column (WCX, 60 mg, 30 μm particle size, waters). Solvent elution was performed by gravity flow. The column was conditioned with 2 mL of methanol, followed by 2 mL of Milli-Q water adjusted to pH 7 with ammonium hydroxide to activate the ion exchange. The sample extract was loaded onto the column, and it was subsequently rinsed with 20 mL of methanol.

[2] = Table S2; cited from earlier work
[3] = rainbow trout (Oncorhynchus mykiss), in vivo, 7 d
[4] = rainbow trout (Oncorhynchus mykiss), in vivo, 7 d, pH 7.5
[5] = mean of exposed fish, Table S10
[6] = mean of exposed fish, Table S11
[7] = mean of exposed fish, Table S12
[8] = mean of exposed fish, Table S13
[9] = mean of exposed fish, Table S14
[10] = mean of exposed fish, Table S15
[11] = methanol rinse normalized to fish surface area, mean of six fish (RSD %)
[12] = wet weight, mean of six fish (RSD % in brackets), 7 d exposure, Q10 below LOQ
[13] = wet weight, mean of six fish (RSD %), 7 d exposure, Q10, Q14 below LOQ

CCCCCCCCCCCCCCCCN [P16, hexadecylamine]
Concentration in gills [1, 3]: 8700 (15) ng g^–1 | Concentration in liver [1, 3]: 5500 (10) ng g^–1 | Concentration in skin [1, 3]: 420 (25) ng g^–1 | Concentration in blood [1, 4]: 130 (19) ng g^–1 | Concentration in muscle [1, 4]: 111 (22) ng g^–1 | Concentration in skin, per surface area [1, 4]: 30 ng cm-2 | pKa [2]: 10.5

CCCCCCCCCCCCCN(C)C [T13, N,N-dimethyltridecylamine]
Concentration in blood ([1]; exposed fish #1): 890 ng/g | Concentration in gills ([1]; exposed fish #1): 9077 ng/g | Concentration in gills, surface area-normalized ([1]; exposed fish #1): 140 ng cm-2 | Concentration in liver ([1]; exposed fish #1): 6570 ng/g | Concentration in mucus ([1]; exposed fish #1): 57 ng cm-2 | Concentration in muscle ([1]; exposed fish #1): 580 ng/g | Concentration in skin ([1]; exposed fish #1): 1879 ng/g | Concentration in skin, per surface area ([1]; exposed fish #1): 89 ng cm-2 | Concentration in blood ([1]; exposed fish #2): 816 ng/g | Concentration in gills ([1]; exposed fish #2): 9391 ng/g | Concentration in gills, surface area-normalized ([1]; exposed fish #2): 150 ng cm-2 | Concentration in liver ([1]; exposed fish #2): 8202 ng/g | Concentration in mucus ([1]; exposed fish #2): 59 ng cm-2 | Concentration in muscle ([1]; exposed fish #2): 593 ng/g | Concentration in skin ([1]; exposed fish #2): 1877 ng/g | Concentration in skin, per surface area ([1]; exposed fish #2): 160 ng cm-2 | Concentration in blood ([1]; exposed fish #3): 1018 ng/g | Concentration in liver ([1]; exposed fish #3): 13696 ng/g | Concentration in mucus ([1]; exposed fish #3): 52 ng cm-2 | Concentration in muscle ([1]; exposed fish #3): 601 ng/g | Concentration in skin ([1]; exposed fish #3): 2115 ng/g | Concentration in skin, per surface area ([1]; exposed fish #3): 150 ng cm-2 | Concentration in blood ([1]; exposed fish #4): 858 ng/g | Concentration in gills ([1]; exposed fish #4): 9586 ng/g | Concentration in gills, surface area-normalized ([1]; exposed fish #4): 178 ng cm-2 | Concentration in liver ([1]; exposed fish #4): 20532 ng/g | Concentration in mucus ([1]; exposed fish #4): 63 ng cm-2 | Concentration in muscle ([1]; exposed fish #4): 882 ng/g | Concentration in skin ([1]; exposed fish #4): 2718 ng/g | Concentration in skin, per surface area ([1]; exposed fish #4): 154 ng cm-2 | Concentration in blood ([1]; exposed fish #5): 795 ng/g | Concentration in gills ([1]; exposed fish #5): 11785 ng/g | Concentration in gills, surface area-normalized ([1]; exposed fish #5): 209 ng cm-2 | Concentration in liver ([1]; exposed fish #5): 12097 ng/g | Concentration in mucus ([1]; exposed fish #5): 70 ng cm-2 | Concentration in muscle ([1]; exposed fish #5): 767 ng/g | Concentration in skin ([1]; exposed fish #5): 1738 ng/g | Concentration in skin, per surface area ([1]; exposed fish #5): 154 ng cm-2 | Concentration in blood ([1]; exposed fish #6): 1205 ng/g | Concentration in gills ([1]; exposed fish #6): 11130 ng/g | Concentration in gills, surface area-normalized ([1]; exposed fish #6): 148 ng cm-2 | Concentration in liver ([1]; exposed fish #6): 9499 ng/g | Concentration in mucus ([1]; exposed fish #6): 70 ng cm-2 | Concentration in muscle ([1]; exposed fish #6): 606 ng/g | Concentration in skin ([1]; exposed fish #6): 2209 ng/g | Concentration in skin, per surface area ([1]; exposed fish #6): 162 ng cm-2 | Concentration in blood [1, 5]: 930 ng/g | Concentration in muscle [1, 6]: 672 ng/g | Concentration in liver [1, 7]: 11766 ng/g | Concentration in gills [1, 8]: 10194 ng/g | Concentration in gills, surface area-normalized [1, 8]: 165 ng cm-2 | Concentration in skin [1, 9]: 2089 ng/g | Concentration in skin, per surface area [1, 9]: 145 ng cm-2 | Concentration in mucus [1, 10]: 62 ng cm-2 | Concentration in mucus [1, 11]: 62 (9) ng cm^–2 | Concentration in blood [1, 12]: 930 (17) ng g^–1 | Concentration in muscle [1, 13]: 670 (19) ng g^–1 | Concentration in skin [1, 13]: 2100 (17) ng g^–1 | pKa [2]: 9.5

CCCCCCCCCCCCN [P12, Dodecylamine]
Concentration in gills [1, 3]: 20 000 (10) ng g^–1 | Concentration in liver [1, 3]: 42 000 (15) ng g^–1 | Concentration in skin [1, 3]: 3900 (25) ng g^–1 | Concentration in blood [1, 4]: 770 (26) ng g^–1 | Concentration in muscle [1, 4]: 630 (28) ng g^–1 | Concentration in skin, per surface area [1, 4]: 310 ng cm-2 | pKa [2]: 10.5

CCCCCCCCCN [P9, Nonylamine]
Concentration in gills [1, 3]: 1200 (12) ng g^–1 | Concentration in liver [1, 3]: 1710 (40) ng g^–1 | Concentration in skin [1, 3]: 132 (36) ng g^–1 | Concentration in blood [1, 4]: 46 (29) ng g^–1 | Concentration in muscle [1, 4]: 27 (39) ng g^–1 | Concentration in skin, per surface area [1, 4]: 11.6 ng cm-2 | pKa [2]: 10.5

CCCCCCCCCN(C)C [T9, N,N-dimethylnonylamine]
Concentration in blood ([1]; exposed fish #1): 305 ng/g | Concentration in gills ([1]; exposed fish #1): 1126 ng/g | Concentration in gills, surface area-normalized ([1]; exposed fish #1): 15.7 ng cm-2 | Concentration in liver ([1]; exposed fish #1): 3588 ng/g | Concentration in mucus ([1]; exposed fish #1): 19 ng cm-2 | Concentration in muscle ([1]; exposed fish #1): 173 ng/g | Concentration in skin, per surface area ([1]; exposed fish #1): 48 ng cm-2 | Concentration in blood ([1]; exposed fish #2): 334 ng/g | Concentration in gills ([1]; exposed fish #2): 1320 ng/g | Concentration in gills, surface area-normalized ([1]; exposed fish #2): 17.4 ng cm-2 | Concentration in liver ([1]; exposed fish #2): 2592 ng/g | Concentration in mucus ([1]; exposed fish #2): 17 ng cm-2 | Concentration in muscle ([1]; exposed fish #2): 173 ng/g | Concentration in skin, per surface area ([1]; exposed fish #2): 32 ng cm-2 | Concentration in blood ([1]; exposed fish #3): 475 ng/g | Concentration in gills ([1]; exposed fish #3): 1432 ng/g | Concentration in liver ([1]; exposed fish #3): 2863 ng/g | Concentration in mucus ([1]; exposed fish #3): 15 ng cm-2 | Concentration in muscle ([1]; exposed fish #3): 200 ng/g | Concentration in skin, per surface area ([1]; exposed fish #3): 28 ng cm-2 | Concentration in blood ([1]; exposed fish #4): 251 ng/g | Concentration in gills ([1]; exposed fish #4): 1130 ng/g | Concentration in gills, surface area-normalized ([1]; exposed fish #4): 17.5 ng cm-2 | Concentration in liver ([1]; exposed fish #4): 1593 ng/g | Concentration in mucus ([1]; exposed fish #4): 18 ng cm-2 | Concentration in muscle ([1]; exposed fish #4): 146 ng/g | Concentration in skin, per surface area ([1]; exposed fish #4): 32 ng cm-2 | Concentration in blood ([1]; exposed fish #5): 323 ng/g | Concentration in gills ([1]; exposed fish #5): 1240 ng/g | Concentration in gills, surface area-normalized ([1]; exposed fish #5): 17.6 ng cm-2 | Concentration in liver ([1]; exposed fish #5): 5463 ng/g | Concentration in mucus ([1]; exposed fish #5): 12 ng cm-2 | Concentration in muscle ([1]; exposed fish #5): 158 ng/g | Concentration in skin, per surface area ([1]; exposed fish #5): 28 ng cm-2 | Concentration in blood ([1]; exposed fish #6): 291 ng/g | Concentration in gills ([1]; exposed fish #6): 869 ng/g | Concentration in gills, surface area-normalized ([1]; exposed fish #6): 11.3 ng cm-2 | Concentration in liver ([1]; exposed fish #6): 7230 ng/g | Concentration in mucus ([1]; exposed fish #6): 9 ng cm-2 | Concentration in muscle ([1]; exposed fish #6): 111 ng/g | Concentration in skin, per surface area ([1]; exposed fish #6): 19 ng cm-2 | Concentration in blood [1, 5]: 330 ng/g | Concentration in muscle [1, 6]: 160 ng/g | Concentration in liver [1, 7]: 3887 ng/g | Concentration in gills [1, 8]: 1186 ng/g | Concentration in gills, surface area-normalized [1, 8]: 15.9 ng cm-2 | Concentration in skin, per surface area [1, 9]: 31 ng cm-2 | Concentration in mucus [1, 10]: 15 ng cm-2 | Concentration in mucus [1, 11]: 15 (24) ng cm^–2 | Concentration in gills ([1]; wet weight, mean of fish (RSD %), 7 d exposure): 1190 (16) ng g^–1 | Concentration in blood [1, 12]: 330 (23) ng g^–1 | Concentration in liver [1, 13]: 3900 (49) ng g^–1 | Concentration in muscle [1, 13]: 160 (19) ng g^–1 | Concentration in skin [1, 13]: 390 (40) ng g^–1 | pKa [2]: 9.5

CCCCCCCCCCCCCN [P13, tridecylamine]
Concentration in gills [1, 3]: 17 800 (12) ng g^–1 | Concentration in liver [1, 3]: 50 000 (26) ng g^–1 | Concentration in skin [1, 3]: 2400 (19) ng g^–1 | Concentration in blood [1, 4]: 540 (12) ng g^–1 | Concentration in muscle [1, 4]: 530 (16) ng g^–1 | Concentration in skin, per surface area [1, 4]: 195 ng cm-2 | pKa [2]: 10.5

Reference: paper PMC7343282, “Tissue Distribution of Several Series of Cationic Surfactants in Rainbow Trout (Oncorhynchus mykiss) Following Exposure via Water” (Environmental Science & Technology, 2020)
